Test results published in PubChem BioAssay (NCI).
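1) Cells in 96-well plates. 2) Compound, 48 h, 5 concentrations. 3) Linear interpolation between surrounding doses. 4) Unreached endpoint = highest concentration. GI50 = concentration required for 50% inhibition of growth. Definition used: TGI = concentration required for complete inhibition of growth.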

Tests used:
Experiment in all cases: DTP human tumour cell line panel, 48 h
786-0 renal = system: 786-0 renal
A498 renal = system: A498 renal
A549 NSCLC = system: A549 NSCLC
ACHN renal = system: ACHN renal
BT-549 breast = system: BT-549 breast
CAKI-1 renal = system: CAKI-1 renal
CCRF-CEM leukemia = system: CCRF-CEM leukemia
COLO 205 colon = system: COLO 205 colon
DU-145 prostate = system: DU-145 prostate
EKVX NSCLC = system: EKVX NSCLC
HCC-2998 colon = system: HCC-2998 colon
HCT-116 colon = system: HCT-116 colon
HCT-15 colon = system: HCT-15 colon
HL-60(TB) leukemia = system: HL-60(TB) leukemia
HOP-62 NSCLC = system: HOP-62 NSCLC
HOP-92 NSCLC = system: HOP-92 NSCLC
HS 578T breast = system: HS 578T breast
HT29 colon = system: HT29 colon
IGROV1 ovarian = system: IGROV1 ovarian
K-562 leukemia = system: K-562 leukemia
KM12 colon = system: KM12 colon
LOX IMVI melanoma = system: LOX IMVI melanoma
M14 melanoma = system: M14 melanoma
MALME-3M melanoma = system: MALME-3M melanoma
MCF7 breast = system: MCF7 breast
MDA-MB-231 breast = system: MDA-MB-231 breast
MDA-MB-435 = system: MDA-MB-435
MOLT-4 leukemia = system: MOLT-4 leukemia
NCI-H226 lung = system: NCI-H226 lung
NCI-H23 lung = system: NCI-H23 lung
NCI-H460 lung = system: NCI-H460 lung
NCI-H522 lung = system: NCI-H522 lung
NCI/ADR-RES ovarian = system: NCI/ADR-RES ovarian
OVCAR-3 ovarian = system: OVCAR-3 ovarian
OVCAR-4 ovarian = system: OVCAR-4 ovarian
OVCAR-5 ovarian = system: OVCAR-5 ovarian
OVCAR-8 ovarian = system: OVCAR-8 ovarian
PC-3 prostate = system: PC-3 prostate
RPMI-8226 leukemia = system: RPMI-8226 leukemia
RXF 393 renal = system: RXF 393 renal
SF-268 CNS = system: SF-268 CNS
SF-295 CNS = system: SF-295 CNS
SF-539 CNS = system: SF-539 CNS
SK-MEL-2 melanoma = system: SK-MEL-2 melanoma
SK-MEL-28 melanoma = system: SK-MEL-28 melanoma
SK-MEL-5 melanoma = system: SK-MEL-5 melanoma
SK-OV-3 ovarian = system: SK-OV-3 ovarian
SN12C renal = system: SN12C renal
SNB-19 CNS = system: SNB-19 CNS
SNB-75 CNS = system: SNB-75 CNS
SW-620 colon = system: SW-620 colon
T-47D breast = system: T-47D breast
TK-10 renal = system: TK-10 renal
U251 CNS = system: U251 CNS
UACC-257 melanoma = system: UACC-257 melanoma
UACC-62 melanoma = system: UACC-62 melanoma
UO-31 renal = system: UO-31 renal

With `C[C@H](c1ccccc1)N(CCC(=O)O)C(=O)CCN(C(=O)CCN(C(=O)CCN[C@H](C)c1ccccc1)[C@H](C)c1ccccc1)[C@H](C)c1ccccc1` the GI50 (786-0 renal) was > 100 µM, the TGI (786-0 renal) was > 100 µM and the GI50 (A498 renal) was > 100 µM. The TGI (A498 renal) was > 100 µM, the GI50 (A549 NSCLC) was > 100 µM and the TGI (A549 NSCLC) was > 100 µM. The GI50 (ACHN renal) was > 100 µM, the TGI (ACHN renal) was > 100 µM and the GI50 (BT-549 breast) was > 100 µM. For the same compound, the TGI (BT-549 breast) was > 100 µM, the GI50 (CAKI-1 renal) was > 100 µM and the TGI (CAKI-1 renal) was > 100 µM. For the same compound, the GI50 (CCRF-CEM leukemia) was > 100 µM, the TGI (CCRF-CEM leukemia) was > 100 µM and the GI50 (COLO 205 colon) was > 100 µM. For the same compound, the TGI (COLO 205 colon) was > 100 µM, the GI50 (DU-145 prostate) was > 100 µM and the TGI (DU-145 prostate) was > 100 µM. The GI50 (EKVX NSCLC) was > 100 µM, the TGI (EKVX NSCLC) was > 100 µM and the GI50 (HCC-2998 colon) was > 100 µM. The TGI (HCC-2998 colon) was > 100 µM, the GI50 (HCT-116 colon) was > 100 µM and the TGI (HCT-116 colon) was > 100 µM. For the same compound, the GI50 (HCT-15 colon) was > 100 µM, the TGI (HCT-15 colon) was > 100 µM and the GI50 (HL-60(TB) leukemia) was > 100 µM. The TGI (HL-60(TB) leukemia) was > 100 µM, the GI50 (HOP-62 NSCLC) was > 100 µM and the TGI (HOP-62 NSCLC) was > 100 µM. For the same compound, the GI50 (HOP-92 NSCLC) was 92 µM, the TGI (HOP-92 NSCLC) was > 100 µM and the GI50 (HS 578T breast) was > 100 µM. The TGI (HS 578T breast) was > 100 µM, the GI50 (HT29 colon) was > 100 µM and the TGI (HT29 colon) was > 100 µM. The GI50 (IGROV1 ovarian) was > 100 µM, the TGI (IGROV1 ovarian) was > 100 µM and the GI50 (K-562 leukemia) was > 100 µM. For the same compound, the TGI (K-562 leukemia) was > 100 µM, the GI50 (KM12 colon) was > 100 µM and the TGI (KM12 colon) was > 100 µM. The GI50 (LOX IMVI melanoma) was > 100 µM, the TGI (LOX IMVI melanoma) was > 100 µM and the GI50 (M14 melanoma) was > 100 µM. For the same compound, the TGI (M14 melanoma) was > 100 µM, the GI50 (MALME-3M melanoma) was > 100 µM and the TGI (MALME-3M melanoma) was > 100 µM. The GI50 (MCF7 breast) was > 100 µM, the TGI (MCF7 breast) was > 100 µM and the GI50 (MDA-MB-231 breast) was > 100 µM. The TGI (MDA-MB-231 breast) was > 100 µM, the GI50 (MDA-MB-435) was > 100 µM and the TGI (MDA-MB-435) was > 100 µM. The GI50 (MOLT-4 leukemia) was > 100 µM, the TGI (MOLT-4 leukemia) was > 100 µM and the GI50 (NCI-H226 lung) was > 100 µM. The TGI (NCI-H226 lung) was > 100 µM, the GI50 (NCI-H23 lung) was > 100 µM and the TGI (NCI-H23 lung) was > 100 µM. The GI50 (NCI-H460 lung) was > 100 µM, the TGI (NCI-H460 lung) was > 100 µM and the GI50 (NCI-H522 lung) was > 100 µM. For the same compound, the TGI (NCI-H522 lung) was > 100 µM, the GI50 (NCI/ADR-RES ovarian) was > 100 µM and the TGI (NCI/ADR-RES ovarian) was > 100 µM. For the same compound, the GI50 (OVCAR-3 ovarian) was > 100 µM, the TGI (OVCAR-3 ovarian) was > 100 µM and the GI50 (OVCAR-4 ovarian) was > 100 µM. For the same compound, the TGI (OVCAR-4 ovarian) was > 100 µM, the GI50 (OVCAR-5 ovarian) was > 100 µM and the TGI (OVCAR-5 ovarian) was > 100 µM. The GI50 (OVCAR-8 ovarian) was > 100 µM, the TGI (OVCAR-8 ovarian) was > 100 µM and the GI50 (PC-3 prostate) was > 100 µM. For the same compound, the TGI (PC-3 prostate) was > 100 µM, the GI50 (RPMI-8226 leukemia) was 58.4 µM and the TGI (RPMI-8226 leukemia) was > 100 µM. The GI50 (RXF 393 renal) was > 100 µM, the TGI (RXF 393 renal) was > 100 µM and the GI50 (SF-268 CNS) was > 100 µM. The TGI (SF-268 CNS) was > 100 µM, the GI50 (SF-295 CNS) was > 100 µM and the TGI (SF-295 CNS) was > 100 µM. The GI50 (SF-539 CNS) was > 100 µM, the TGI (SF-539 CNS) was > 100 µM and the GI50 (SK-MEL-2 melanoma) was > 100 µM. For the same compound, the TGI (SK-MEL-2 melanoma) was > 100 µM, the GI50 (SK-MEL-28 melanoma) was > 100 µM and the TGI (SK-MEL-28 melanoma) was > 100 µM. For the same compound, the GI50 (SK-MEL-5 melanoma) was > 100 µM, the TGI (SK-MEL-5 melanoma) was > 100 µM and the GI50 (SK-OV-3 ovarian) was > 100 µM. For the same compound, the TGI (SK-OV-3 ovarian) was > 100 µM, the GI50 (SN12C renal) was > 100 µM and the TGI (SN12C renal) was > 100 µM. For the same compound, the GI50 (SNB-19 CNS) was > 100 µM, the TGI (SNB-19 CNS) was > 100 µM and the GI50 (SNB-75 CNS) was 66.4 µM. The TGI (SNB-75 CNS) was > 100 µM, the GI50 (SW-620 colon) was > 100 µM and the TGI (SW-620 colon) was > 100 µM. The GI50 (T-47D breast) was > 100 µM, the TGI (T-47D breast) was > 100 µM and the GI50 (TK-10 renal) was > 100 µM. The TGI (TK-10 renal) was > 100 µM, the GI50 (U251 CNS) was > 100 µM and the TGI (U251 CNS) was > 100 µM. The GI50 (UACC-257 melanoma) was > 100 µM, the TGI (UACC-257 melanoma) was > 100 µM and the GI50 (UACC-62 melanoma) was > 100 µM. The TGI (UACC-62 melanoma) was > 100 µM, the GI50 (UO-31 renal) was > 100 µM and the TGI (UO-31 renal) was > 100 µM.
